This note sets out measurements from US10933063B2 (priority 2017, dated 2021).

What is called IC50 is the concentration at which inhibition is half-maximal. High values mean a need for much substance, low ones inhibition by little substance.

The experiment deals with BTK (Homo sapiens (Human), UniProt Q06187). The experiment is described as follows: biochemical.
Chain of BTK (Q06187 whole entry, looked up, species assumed): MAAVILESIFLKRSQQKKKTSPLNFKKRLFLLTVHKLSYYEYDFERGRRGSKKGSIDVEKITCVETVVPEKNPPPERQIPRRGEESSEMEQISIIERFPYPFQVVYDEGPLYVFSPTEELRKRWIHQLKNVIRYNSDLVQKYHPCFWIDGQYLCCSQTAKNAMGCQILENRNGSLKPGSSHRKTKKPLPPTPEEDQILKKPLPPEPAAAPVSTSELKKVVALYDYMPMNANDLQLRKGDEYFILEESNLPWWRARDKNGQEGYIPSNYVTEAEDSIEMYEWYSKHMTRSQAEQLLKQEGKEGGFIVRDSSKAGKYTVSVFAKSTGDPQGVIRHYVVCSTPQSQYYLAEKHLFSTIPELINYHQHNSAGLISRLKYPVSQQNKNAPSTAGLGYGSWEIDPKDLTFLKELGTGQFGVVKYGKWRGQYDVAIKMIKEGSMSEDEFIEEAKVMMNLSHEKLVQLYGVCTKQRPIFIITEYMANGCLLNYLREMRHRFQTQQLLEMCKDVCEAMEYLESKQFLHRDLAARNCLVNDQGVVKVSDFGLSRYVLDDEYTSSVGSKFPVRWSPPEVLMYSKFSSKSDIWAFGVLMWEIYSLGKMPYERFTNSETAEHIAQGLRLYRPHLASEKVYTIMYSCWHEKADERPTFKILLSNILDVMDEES

`CC#CC(=O)N1CCCC[C@H]1c1nc(-c2ccc(Oc3cccc(OC)c3)cc2)c2cnccn12` [Example 59, (S)-1-(2-(1-(4-(3-methoxyphenoxy)phenyl)imidazo[1,5-a]pyrazin-3-yl)piperidin-1-yl)but-2-yn-1-one] had an IC50 of 100 to 1000 nM.

`CC#CC(=O)N1CCCC[C@H]1c1nc(-c2ccc(Oc3cccc(F)c3F)cc2)c2c(C)nccn12` [Example 60, (S)-1-(2-(1-(4-(2,3-difluorophenoxy)phenyl)-8-methylimidazo[1,5-a]pyrazin-3-yl)piperidin-1-yl)but-2-yn-1-one] had an IC50 of 10 to 100 nM. In turn, `CC#CC(=O)N1CCC[C@H]1c1nc(-c2ccc(Oc3cccc(OC)c3F)cc2)c2cncc(C)n12` [Example 63, (S)-1-(2-(1-(4-(2-fluoro-3-methoxyphenoxy)phenyl)-5-methylimidazo[1,5-a]pyrazin-3-yl)pyrrolidin-1-yl)but-2-yn-1-one] gave an IC50 of 100 to 1000 nM.

For the compound `CC#CC(=O)N1CCC[C@H]1c1nc(-c2ccc(Oc3cccc(OC)c3F)cc2)c2c(C)ncc(C)n12` [Example 65, (S)-1-(2-(1-(4-(2-fluoro-3-methoxyphenoxy)phenyl)-5,8-dimethylimidazo[1,5-a]pyrazin-3-yl)pyrrolidin-1-yl)but-2-yn-1-one], the IC50 lay within 10 to 100 nM.

`C=CC(=O)N1CCCC[C@H]1c1nc(-c2ccc(Oc3cccc(OC)c3F)cc2)c2c(C(=O)OC)nccn12` [Example 66, methyl (S)-3-(1-acryloylpiperidin-2-yl)-1-(4-(2-fluoro-3-methoxyphenoxy)phenyl)imidazo[1,5-a]pyrazine-8-carboxylate] gave an IC50 of 1000 to 10000 nM.

Compound `CC#CC(=O)N1CCCC[C@H]1c1nc(-c2ccc(Oc3cccc(OC)c3F)cc2)c2c(C(=O)OC)nccn12` [Example 67, methyl (S)-3-(1-(but-2-ynoyl)piperidin-2-yl)-1-(4-(2-fluoro-3-methoxyphenoxy)phenyl)imidazo[1,5-a]pyrazine-8-carboxylate] came in with a half-inhibitory concentration (IC50) of 1000 to 10000 nM.

For `C=CC(=O)N1CCC[C@@H](c2nc(-c3ccc(Oc4cccc(OC)c4F)cc3)c3cncc(C)n23)C1` [Example 70, (R)-1-(3-(1-(4-(2-fluoro-3-methoxyphenoxy)phenyl)-5-methylimidazo[1,5-a]pyrazin-3-yl)piperidin-1-yl)prop-2-en-1-one], the IC50 was 10 to 100 nM. Take `CC#CC(=O)N1CCC[C@@H](c2nc(-c3ccc(Oc4cccc(OC)c4F)cc3)c3cncc(C)n23)C1` [Example 71, (R)-1-(3-(1-(4-(2-fluoro-3-methoxyphenoxy)phenyl)-5-methylimidazo[1,5-a]pyrazin-3-yl)piperidin-1-yl)but-2-yn-1-one]: the IC50 was 100 to 1000 nM. In turn, `C=CC(=O)N1CC[C@@H](c2nc(-c3ccc(Oc4cccc(OC)c4F)cc3)c3cncc(C)n23)C1` [Example 72, (R)-1-(3-(1-(4-(2-fluoro-3-methoxyphenoxy)phenyl)-5-methylimidazo[1,5-a]pyrazin-3-yl)pyrrolidin-1-yl)prop-2-en-1-one] returned an IC50 of 10 to 100 nM. As to `CC#CC(=O)N1CC[C@@H](c2nc(-c3ccc(Oc4cccc(OC)c4F)cc3)c3cncc(C)n23)C1` [Example 73, (R)-1-(3-(1-(4-(2-fluoro-3-methoxyphenoxy)phenyl)-5-methylimidazo[1,5-a]pyrazin-3-yl)pyrrolidin-1-yl)but-2-yn-1-one], the half-maximal inhibitory concentration (IC50) fell in the range of 10 to 100 nM.

For the compound `CC#CC(=O)N1CC[C@@H](c2nc(-c3ccc(Oc4cccc(OC)c4F)cc3)c3c(C)ncc(C)n23)C1` [Example 75, (R)-1-(3-(1-(4-(2-fluoro-3-methoxyphenoxy)phenyl)-5,8-dimethylimidazo[1,5-a]pyrazin-3-yl)pyrrolidin-1-yl)but-2-yn-1-one], the half-maximal inhibitory concentration (IC50) was in the range of 10 to 100 nM. On to `C=CC(=O)N1CCC[C@@H](c2nc(-c3ccc(Oc4cccc(OC)c4F)cc3)c3c(C)ncc(C)n23)C1` [Example 76, (R)-1-(3-(1-(4-(2-fluoro-3-methoxyphenoxy)phenyl)-5,8-dimethylimidazo[1,5-a]pyrazin-3-yl)piperidin-1-yl)prop-2-en-1-one], for which the half-inhibitory concentration (IC50) is 10 to 100 nM.
